Measured values: patent US20250295627A1 (Leibniz-Institut Fuer Neurobiologie, priority 2022, published 2025)
Read-outs that look alike come from different tables or passages of the source.

Columns and labels:
[1] = type: in vivo, mouse; conditions: 50 mg/kg daily oral, treated versus control animals
Description: (§1) . For TBA2.1 mice (both sexes), treatment started at the age of 4 weeks. The animals were group housed and force fed for 4 weeks. […] Treatment in 5×FAD male mice started at the age of 12 weeks. Here, animals were single housed right away and given a choice between voluntary and forced feeding. […] During the course of the 7th week of treatment, animals were either subjected to perfusion to obtain their brains for subsequent immunohistochemistry or they were culled to obtained native brains for electrophysiological recordings.

[2] = system: CREB; type: in vivo, mouse; conditions: for CREB shutoff in dorsal hippocampal CA1: 50 mg/kg daily oral, 6 weeks
Method: (§2) Animals were anesthetized with ketamine/xylazine (Medistar) and transcardially perfused with 0.9% saline followed by 4% PFA. The brains were post-fixed in 4% PFA in PBS overnight, followed by immersion in 0.5 M sucrose for 24 h and then 1M sucrose for another 1 to 2 days or until the brains were sunken down. The brains were snap-frozen and cut into 35 μm thick coronal cryosections (Leica CM3050S, Leica-Microsystems). The sections were blocked in a buffer (0.3% TX-100, 10% NGS in PBS) for 30 min at RT, and incubated with primary antibodies diluted in the blocking solution, overnight at 4° C. Secondary antibodies were applied for 2 h at RT. Sections were counterstained with DAPI and mounted in Mowiol 4-88 (Merck Chemicals). For the detection of Aβ, the heat-based antigen retrieval method was used. For anti-Aβ staining, following permeabilization, brain sections were immersed into […] sodium citrate solution (Fluka, pH=9) for 30 min at 80° C. Imaging of nuclear pCREB/CREB immunoreactivities in cryosections was performed using a Leica TCS SP5 system (Leica-Microsystems). Images were acquired sequentially with a HCX ApoL20×/1.0 water objective, optical zoom 4. Sections were imaged with constant laser/detector settings along the z-axis with 400 nm step in a 512×512 pixel format.
as §1
All quantifications were done within the distal CA1 region of the hippocampus. Fiji/ImageJ software (Schindelin et al., 2012) was used to calculate maximum intensity projection from five optical sections for each channel. CREB and pCREB immunoreactivity of every single nucleus in a 100 μm stretch was measured in arbitrary units of pixel intensity. ROls were defined based on NeuN and DAPI. The neuronal loss was quantified based on NeuN staining (the number of neurons/CA1 length). For the quantification of microglia and astrocytes the number of cells based on overlaid DAPI and Iba-1 or GFAP signal was quantified within the rectangular ROI. Aβ plaques were counted in the region where the neuronal loss was quantified.

[3] = system: TBA2.1 mice; experiment: Open-field test; type: in vivo, mouse
Description: as §1
Locomotor activity was assessed using the Open-field test, performed in a square arena (45×45×45 cm) made of black Plexiglas and dimly illuminated. The animals were placed in the center of the arena, and were left to explore it for 10 min. The sessions were video recorded, and the distance travelled in the maze as well as the speed was tracked with ANY-maze Software 7.0 (Stoelting Co). Data were analyzed in 1 min bins.

[4] = estimated life-long consumption of turkey meat; cited from earlier work
[5] = system: TBA2.1 and 5×FAD mice; experiment: Synaptic density in stratum lacunosum moleculare of CA1 after oral Nitarsone; type: in vivo, mouse
Method: as §2
. For TBA2.1 mice (both sexes), treatment started at the age of 4 weeks. […]

[6] = system: hippocampal primary neurons; experiment: Whole-cell voltage-clamp recording of mEPSCs; type: cell-based, rat
[7] = system: hippocampal neurons; experiment: Aβ-induced synapse loss (synaptophysin/Shank3 puncta) in dissociated hippocampal neurons; type: cell-based, rat; conditions: 5 μM Nitarsone, 48 h, 500 nM Aβ1-42
Method: Hippocampal and cortical cultures were prepared from Wistar rat embryos (E18) of mixed sex as described previously (Spilker et al., 2016). Briefly, dissected were digested for 15 min with trypsin at 37° C. Neurons were plated on plastic 12-well dishes (Greiner) on glass coverslips coated with poly-L-lysine (Sigma-Aldrich) at a density of 60 000 cells/well in DMEM medium (Gibco, Thermo Fisher Scientific) supplemented with 10% FCS, 1× penicillin/streptomycin, and 2 mM glutamine. After 1 h incubation (at the 37° C., 5% CO2, 95% humidity) cells were kept in BrainPhys medium supplemented with 1% SM1 (Stemmcell Technologies), 0.5 mM Glutamine (Gibco) at 37° C., 5% CO2 and 95% humidity. […]
For quantitation of nuclear staining intensity (pCREB or CREB) somatic regions were sequentially scanned using the 63× objective (Leica) in both: Leica TCS SP8-STED and Leica TCS SP5 systems. […] Unprocessed images were analysed using Fiji/ImageJ software (Schindelin et al., 2012). For visualization of the quantified channel a fire look-up table (LUT) was used. Synaptic density was quantified in secondary dendrites using Fiji/ImageJ (Schindelin et al., 2012). […] Intensity of the GluA1 channel was measured in ROIs defined by a Shank3 mask as a readout for surface AMPAR expression.

In the case of `O=[N+]([O-])c1ccc([As](=O)(O)O)cc1` [Nitarsone, (4-nitrophenyl) arsonic acid], the body weight [1] is reported as “no effect on the body weight”, the “CREB shutoff in dorsal hippocampal CA1” value ([2]; 5×FAD mice) is reported as “effectively prevented CREB shutoff” and the “CREB immunoreactivity in NeuN positive cells in CA1” value ([2]; 5×FAD mice, 18 weeks old) is reported as “rescues the reduction of CREB immunoreactivity”. For the same molecule, the “CREB shutoff in dorsal hippocampal CA1” value ([2]; TBA2.1 mice) was “effectively prevented CREB shutoff”, the “CREB immunoreactivity in NeuN positive cells in CA1” value ([2]; TBA2.1 mice, 11 weeks old) was “rescues the reduction of CREB immunoreactivity” and the preference index ([3]; FIG. 11 panel L, TBA2.1 mice) was “does not influence preference index”. The “distance travelled during open field arena exploration” value ([3]; FIG. 11 panel M, TBA2.1 mice) was “slightly normalizes increased distance travelled”, the preference index ([3]; FIG. 11 panel N, printed TBA2.1 mice) was “does not influence preference index” and the “distance travelled during open field arena exploration” value ([3]; FIG. 11 panel O, printed TBA2.1 mice) was “slightly normalizes increased distance travelled”. The “increased lifetime risk of developing cancer” value [4] was 0.00031%, the “synapse loss in the stratum lacunosum moleculare” value ([5]; 5×FAD mice) was “clearly reduced synapse loss” and the “synapse loss in the stratum lacunosum moleculare” value ([5]; TBA2.1 mice) was “clearly reduced synapse loss”. The mEPSC amplitude ([6]; co-application of 5 µM Nitarsone with 500 nM Aβ1-42, 48 h) was “restored mEPSC amplitude”, the “mEPSC amplitude and frequency” value ([6]; drug alone, 5 µM, 48 h) was “no effect on both measures” and the Aβ-induced synapse loss [7] was “completely prevented”.
